Patent US3985790A, “Phenoxyalkane carboxylic acid derivative” (priority 1974, dated 1976)
Where two headings read alike, the source gives them in different places.

Assays:
[1] = Acute toxicity (LD50); settings: mouse, in vivo
[2] = test system: serum cholesterol and serum triglyceride levels; test: Antilipemic effect in young male rats, fatty diet 2 (high cholesterol-high fat), 14 days oral; assay type: in vivo, SPF-Wistar rats; settings: fatty diet 2, 250 mg/kg oral
From the text: In these tests the compound in a vehicle was supplied orally for a period of 14 days. Twenty-four hours after the last dose blood analyses were made for determining the serum cholesterol and serum triglyceride levels. In a second series young male rats of 80-90 grams weight were fed a fat and cholesterol-rich diet (fatty diet 2). The statistical significance (p) of the results is also given.

[3] = test system: serum cholesterol and serum triglyceride levels; assay type: in vivo, SPF-Wistar rats; settings: 14 days
From the text: (§1) The therapeutic effectiveness of the salt of this invention ("clofibrinate") was compared with that of the fundamental parent substance, namely the 4-(p-chlorophenoxyacetylamino)-benzoic acid diethylaminoethyl ester, as well as clofibrate, that is the ethyl ester of clofibrinic acid, using SPF-Wistar rats. In these tests the compound in a vehicle was supplied orally for a period of 14 days. Twenty-four hours after the last dose blood analyses were made for determining the serum cholesterol and serum triglyceride levels.
In a first series of experiments, the effectiveness was studied in rats having normal blood lipid levels which were made hyperlipemic by means of a special fatty diet 1. This cholesterol-rich fatty diet 1 corresponded to that of Berger et al., Proc. Soc. Ex. Biol. (1969) 132,293.

[4] = test system: blood serum cholesterol and lipid levels; test: Effect on blood serum cholesterol and lipid levels, tolerability and toxicity, general statements; assay type: in vivo, SPF-Wistar rats; settings: hyperlipemic conditions
From the text: as §1
In a first series of experiments, the effectiveness was studied in rats having normal blood lipid levels which were made hyperlipemic by means of a special fatty diet 1. This cholesterol-rich fatty diet 1 corresponded to that of Berger et al., Proc. Soc.
In a second series young male rats of 80-90 grams weight were fed a fat and cholesterol-rich diet (fatty diet 2). The statistical significance (p) of the results is also given.

[5] = test system: human lipid metabolism; settings: French Pat. No. 1,552,793; cited from earlier work
[6] = fatty diet 1, 1000 mg/kg oral, 3 of 10 animals died

Row | SMILES | LD50 [1] [mg/kg] | Decrease of triglycerides [2] [%] | Final Value Cholest. [2] [mg %] | Final Value Triglycerides [2] | Decrease of cholesterol ([3]; fatty diet 1, 250 mg/kg oral) [%] | Decrease of triglycerides ([3]; fatty diet 1, 250 mg/kg oral) [%] | Final Value Cholest. ([3]; fatty diet 1, 250 mg/kg oral) [mg%] | Final Value Triglycerides ([3]; fatty diet 1, 250 mg/kg oral) | Decrease of cholesterol [3, 6] [%] | Final Value Cholest. [3, 6] [mg%] | Final Value Triglycerides [3, 6] | effectiveness against elevated cholesterol and elevated triglyceride levels [4] | Decrease of cholesterol ([3]; fatty diet 1, 100 mg/kg oral) [%] | Final Value Cholest. ([3]; fatty diet 1, 100 mg/kg oral) [mg%] | Final Value Triglycerides ([3]; fatty diet 1, 100 mg/kg oral) | influence on human lipid metabolism [5]
1 | CCOC(=O)C(C)(C)Oc1ccc(Cl)cc1 [Clofibrate, ethyl-2-(p-chlorophenoxy)-isobutyrate] | 1150 | 20.6 | 133.3 | 107.7 | 3.0 | 12.5 | 347.9 | 75.6 | 31.6 | 245.4 | 120.3 | only slightly effective under hyperlipemic conditions or even fails completely | – | – | – | –
2 | CCN(CC)CCOC(=O)c1ccc(NC(=O)COc2ccc(Cl)cc2)cc1 [Parent Compound, 4-(p-chlorophenoxyacetylamino)-benzoic acid diethylaminoethyl ester] | – | – | – | – | 24.9 | – | 269.4 | 101.6 | – | – | – | – | 7.8 | 330.6 | 114.9 | have an influence on human lipid metabolism
